Here are results for 38 sequences from the supplement of paper PMC3068080.

One data set relates to TGFBR2 mRNA. Nature of the data set: remaining TGFBR2 mRNA relative to control siRNA (off-target knock-down) (fraction of control); quantification method: branched DNA; higher = less knock-down. The procedure: (§1)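 Screen-hit siRNA duplexes (19-mer plus 3' dTdT overhang) were transiently transfected into HaCaT cells in 12-well plates. After 48 h, TGFBR1 and TGFBR2 mRNA were quantified by branched DNA assay (QuantiGene, normalised to HPRT1) or by SYBR qPCR (normalised to HPRT1/SMAD4). Values are the remaining mRNA relative to control-siRNA-transfected cells; 1-2 biological replicates.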

The subject of a further data set is TGFBR1 mRNA. Briefly: remaining TGFBR1 mRNA relative to control siRNA (off-target knock-down) (fraction of control); quantification method: branched DNA; higher = less knock-down. The protocol: as §1

As to UGGACAUGGAGUGGCCUGATT, the “remaining TGFBR2 mRNA” value in the data set with TGFBR2 mRNA was found to be 0.55. For the same sequence, the “remaining TGFBR1 mRNA” value with TGFBR1 mRNA stood at 1.09.

With UGGAGCUGCACAUAUUCCUTT, the “remaining TGFBR2 mRNA” value in the data set on TGFBR2 mRNA stood at 0.27. Moreover, the “remaining TGFBR1 mRNA” value with TGFBR1 mRNA was determined as 1.2.

Take UGGCCGUCAAUGUAUUUCUTT: in the data set on TGFBR2 mRNA, the “remaining TGFBR2 mRNA” value came to 0.7. In addition, the “remaining TGFBR1 mRNA” value in the data set on TGFBR1 mRNA came to 1.25.

As to UGGGCUUUUCUCUUCUCUCTT, in the data set with TGFBR2 mRNA, the “remaining TGFBR2 mRNA” value is 1.43. Moreover, the “remaining TGFBR1 mRNA” value in the data set with TGFBR1 mRNA turned out to be 1.47.

For UGGUGAAGAGGCACUUAACTT, the “remaining TGFBR2 mRNA” value in the data set on TGFBR2 mRNA is 1.06. Further, the “remaining TGFBR1 mRNA” value with TGFBR1 mRNA stood at 0.69.

As to UGUACUUCUCCUUGGAGAATT, the “remaining TGFBR2 mRNA” value in the data set with TGFBR2 mRNA was found to be 0.64. Besides, the “remaining TGFBR1 mRNA” value with TGFBR1 mRNA was 0.8.

For the sequence UGUAGUGAAUUCCAAAGAGTT, the “remaining TGFBR2 mRNA” value in the data set with TGFBR2 mRNA worked out at 0.41. In addition, in the data set on TGFBR1 mRNA, the “remaining TGFBR1 mRNA” value turned out to be 0.47.

For UGUCCUGGUCACACUUCCATT, in the data set with TGFBR2 mRNA, the “remaining TGFBR2 mRNA” value was 0.5. Besides, in the data set with TGFBR1 mRNA, the “remaining TGFBR1 mRNA” value was 0.23.

For the sequence UGUGCUUGGUCACGGACACTT, the “remaining TGFBR2 mRNA” value in the data set on TGFBR2 mRNA was 0.27. For the same sequence, the “remaining TGFBR1 mRNA” value with TGFBR1 mRNA came to 1.86.

Consider UGUGUAGCACAUGGGACACTT, for which the “remaining TGFBR2 mRNA” value with TGFBR2 mRNA is 0.73. Further, the “remaining TGFBR1 mRNA” value with TGFBR1 mRNA was 1.05.

As to UGUUCUUGAAGUCCCGCAGTT, the “remaining TGFBR2 mRNA” value in the data set with TGFBR2 mRNA was 0.78. Moreover, the “remaining TGFBR1 mRNA” value with TGFBR1 mRNA was found to be 1.69.

In the case of UUAUAAGCCAAAGUGCGUCTT, the “remaining TGFBR2 mRNA” value with TGFBR2 mRNA stood at 1.66. Moreover, in the data set on TGFBR1 mRNA, the “remaining TGFBR1 mRNA” value amounted to 0.6.

For the sequence UUAUCCCAUAUGAGCUCAGTT, the “remaining TGFBR2 mRNA” value with TGFBR2 mRNA was found to be 0.5. The “remaining TGFBR1 mRNA” value with TGFBR1 mRNA came out at 1.33.

In the case of UUAUCCUGAUCACGUCUAGTT, the “remaining TGFBR2 mRNA” value with TGFBR2 mRNA amounted to 0.14. The “remaining TGFBR1 mRNA” value with TGFBR1 mRNA was 0.65.

In the case of UUAUUGGGCAAAAUCCGGGTT, the “remaining TGFBR2 mRNA” value with TGFBR2 mRNA turned out to be 0.72. Also, the “remaining TGFBR1 mRNA” value with TGFBR1 mRNA came to 0.88.

As for UUCAAGGUCAGUCUCUGGGTT, the “remaining TGFBR2 mRNA” value in the data set on TGFBR2 mRNA is 0.51. In the data set on TGFBR1 mRNA, the “remaining TGFBR1 mRNA” value amounted to 1.07.

For UUCAAUAGUUGUCAGAGGCTT, the “remaining TGFBR2 mRNA” value in the data set on TGFBR2 mRNA turned out to be 1.62. In the data set with TGFBR1 mRNA, the “remaining TGFBR1 mRNA” value worked out at 1.35.

With UUCCCUGCUACUGUUGCUUTT, in the data set with TGFBR2 mRNA, the “remaining TGFBR2 mRNA” value was found to be 0.72. Moreover, the “remaining TGFBR1 mRNA” value in the data set on TGFBR1 mRNA is 0.84.

Turning to UUCCUUGGCUGUGAUGCUCTT, the “remaining TGFBR2 mRNA” value in the data set with TGFBR2 mRNA was found to be 0.11. In addition, in the data set with TGFBR1 mRNA, the “remaining TGFBR1 mRNA” value is 0.93.

As for UUCCUUGGUACGGCCGCUCTT, in the data set with TGFBR2 mRNA, the “remaining TGFBR2 mRNA” value turned out to be 0.13. Also, the “remaining TGFBR1 mRNA” value in the data set with TGFBR1 mRNA worked out at 0.87.

UUCGUCGAUGGCUUCGUCUTT: in the data set on TGFBR2 mRNA, the “remaining TGFBR2 mRNA” value came out at 0.65. In addition, the “remaining TGFBR1 mRNA” value in the data set with TGFBR1 mRNA was found to be 0.67.

UUCUUCUGGUCCAUACUCATT: in the data set on TGFBR2 mRNA, the “remaining TGFBR2 mRNA” value came to 0.66. Also, the “remaining TGFBR1 mRNA” value in the data set with TGFBR1 mRNA came out at 0.45.

Consider UUCUUUGGAGAGUCCGGUCTT, for which the “remaining TGFBR2 mRNA” value with TGFBR2 mRNA worked out at 0.3. For the same sequence, the “remaining TGFBR1 mRNA” value with TGFBR1 mRNA came out at 0.88.

For UUGAGCGAUUCCAGCUGCATT, the “remaining TGFBR2 mRNA” value with TGFBR2 mRNA was determined as 0.85. Also, in the data set on TGFBR1 mRNA, the “remaining TGFBR1 mRNA” value came to 1.77.

With UUGCAAGCCCAGAUCAGACTT, the “remaining TGFBR2 mRNA” value in the data set on TGFBR2 mRNA turned out to be 0.74. Also, in the data set with TGFBR1 mRNA, the “remaining TGFBR1 mRNA” value was determined as 0.92.

On to UUGGAGCCCUUUCCUUUCUTT, for which the “remaining TGFBR2 mRNA” value in the data set with TGFBR2 mRNA is 0.26. Also, the “remaining TGFBR1 mRNA” value in the data set with TGFBR1 mRNA came out at 1.07.

As to UUGUAAAAACCAGGCGACCTT, the “remaining TGFBR2 mRNA” value in the data set with TGFBR2 mRNA was 0.33. Further, the “remaining TGFBR1 mRNA” value in the data set on TGFBR1 mRNA is 1.48.

With UUGUCAAAGUGGAACGCUCTT, the “remaining TGFBR2 mRNA” value with TGFBR2 mRNA was determined as 0.29. Also, the “remaining TGFBR1 mRNA” value in the data set on TGFBR1 mRNA worked out at 0.83.

As for UUGUGCUGCAUACGGAGCCTT, in the data set on TGFBR2 mRNA, the “remaining TGFBR2 mRNA” value came to 0.45. In addition, the “remaining TGFBR1 mRNA” value with TGFBR1 mRNA is 1.69.

In the case of UUUCAGCAAUACAAGCCCGTT, the “remaining TGFBR2 mRNA” value in the data set on TGFBR2 mRNA turned out to be 0.68. Also, in the data set on TGFBR1 mRNA, the “remaining TGFBR1 mRNA” value stood at 0.39.

In the case of UUUCAUUCCAUUGGAAUUUTT, the “remaining TGFBR2 mRNA” value in the data set on TGFBR2 mRNA was 0.59. For the same sequence, in the data set on TGFBR1 mRNA, the “remaining TGFBR1 mRNA” value came to 1.25.

In the case of UUUCCUGGCCUCCUGGAACTT, in the data set with TGFBR2 mRNA, the “remaining TGFBR2 mRNA” value was 0.29. Also, the “remaining TGFBR1 mRNA” value with TGFBR1 mRNA is 0.94.

In the case of UUUCCUGGUUGGUGAGCAGTT, the “remaining TGFBR2 mRNA” value in the data set on TGFBR2 mRNA worked out at 0.36. Besides, the “remaining TGFBR1 mRNA” value in the data set with TGFBR1 mRNA is 1.29.

Consider UUUGGACUGGUUGGCACAGTT, for which, in the data set on TGFBR2 mRNA, the “remaining TGFBR2 mRNA” value turned out to be 0.69. For the same sequence, the “remaining TGFBR1 mRNA” value with TGFBR1 mRNA came out at 1.11.

As to UUUGGAGCUCCCCAAACGCTT, the “remaining TGFBR2 mRNA” value in the data set on TGFBR2 mRNA was 0.26. Moreover, the “remaining TGFBR1 mRNA” value with TGFBR1 mRNA worked out at 0.39.

For UUUGGCUUCUUCUAGUGACTT, the “remaining TGFBR2 mRNA” value with TGFBR2 mRNA was found to be 0.51. In the data set on TGFBR1 mRNA, the “remaining TGFBR1 mRNA” value came out at 0.91.

As for UUUGUUGUCCAGUGGUCCGTT, the “remaining TGFBR2 mRNA” value in the data set with TGFBR2 mRNA is 0.43. Moreover, in the data set on TGFBR1 mRNA, the “remaining TGFBR1 mRNA” value came to 1.13.

Take UUUUCCUGGCCUCUGAUCCTT: the “remaining TGFBR2 mRNA” value in the data set with TGFBR2 mRNA is 0.15. Further, the “remaining TGFBR1 mRNA” value with TGFBR1 mRNA came out at 0.99.
